Experimental data published in US7195892B2, “Acylase gene” (Kaneka Corporation, priority 2002, dated 2007).
Where a chain is given by its changes, count along the chain named.

Legend:
Type in all cases: biochemical
[1] = biological target: T1, Escherichia coli PenG amidase (Escherichia coli, UniProt P06875); test: Amoxycillin synthetic activity inhibition by PAA and PXA; settings: for relative activity, amoxycillin synthesis amount with the substrate alone set at 100%: 30 mM KPB pH 6.0, 30° C., 1 hour; for inhibition of amoxycillin synthesis (in words): summary of Table 1
T1 construct: purchased Sigma
Procedure: (§1) To 200 μl of a substrate solution prepared by dissolving 6-APA and HPGOMe-HCl in 30 mM KPB (pH 6.0) at the concentration of 0.5%, 10 μl of the enzyme solution obtained in (Examination Example 1) was added. PAA was added to be 0.3% and PXA was added to be 0.35%, and the mixture was subjected to reaction while shaking at 30° C. for 1 hour. Then, 1N HCl was added in 1/20 amount of the substrate to terminate the reaction. The generated amoxycillin was detected using HPLC. The result showing relative activity for the respective enzymes with the amoxycillin synthesis amount reacted by the substrate alone being set at 100% is shown in Table 1.

[2] = test system: Stenotrophomonas maltophilia KNK12A strain-derived β-lactam acylase; test: as above; settings: for relative activity, amoxycillin synthesis amount with the substrate alone set at 100%: 30 mM KPB pH 6.0, 30° C., 1 hour; for inhibition of amoxycillin synthesis (in words): summary of Table 1
Procedure: as §1

[3] = Comparison of amoxycillin synthesis activity; settings: 0.5% 6-APA and HPGOMe-HCl, pH 6.0, 30° C., 0-120 minutes; FIG. 3
Procedure: Amoxycillin synthesis activities of the Stenotrophomonas maltophilia KNK12A strain-derived β-lactam acylase and the known Escherichia coli PenG amidase (Sigma) were compared. As an enzyme solution, the fraction obtained in (Example 8) (enzyme concentration: about 3.2 ng/10 μl) was used for the Stenotrophomonas maltophilia KNK12A strain-derived β-lactam acylase, and 100-fold diluted solution (10.2 munit/10 μl, enzyme concentration: about 3.5 ng/10 μl) was used for Escherichia coli PenG amidase.
To 200 μl of a substrate solution prepared by dissolving 6-APA and HPGOMe-HCl in 30 mM KPB (pH 6.0) at the concentration of 0.5%, 10 μl of the enzyme solution was added and the mixture was subjected to reaction while shaking at 30° C. After the lapse of 0, 5, 10, 15, 30, 45, 60, 75, 90, 105 and 120 minutes from the start of the reaction, 1N HCl was added in 1/20 amount of the substrate solution to terminate the reaction. The generated amoxycillin was detected using HPLC.

[4] = Decomposition activity of amoxycillin; settings: 0.5% amoxycillin, pH 6.0, 30° C., 1 hour; FIG. 4
Procedure: (§2) To 200 μl of a solution prepared by dissolving amoxycillin in 30 mM KPB (pH 6.0) at the concentration of 0.5%, 10 μl of the enzyme solution obtained in (Examination Example 1) was added. The mixture was subjected to reaction for 1 hour while shaking at 30° C., and 1N HCl was added in 1/20 amount of the substrate solution to terminate the reaction.
as §2, with “a liquid” for “a solution”, “reaction” for “reaction for 1 hour”, “30° C. for 1 hour,” for “30° C.,”, “and then” for “and”, “reaction. The remained amoxycillin was detected using HPLC.” for “reaction.”

[5] = Comparison of decomposition activity of HPGOMe; settings: 0.5% HPGOMe-HCl, pH 6.0, 30° C., 1 hour; FIG. 5
Procedure: To 200 μl of a liquid prepared by dissolving HPGOMe-HCl in 30 mM KPB (pH 6.0) at the concentration of 0.5%, 10μ of the enzyme solution obtained in (Examination Example 1) was added, and the mixture was subjected to reaction while shaking at 30° C. for 1 hour. Then, 1N HCl was added in 1/20 amount of the substrate solution to terminate the reaction. The remained HPGOMe was detected using HPLC.

[6] = Capability comparison examination of a mutant acylase; settings: compared with unmodified acylase
Procedure: A β-lactam acylase-producing strain pUCNTkmTn5-KNK-L/HB101 strain and 1 amino acid-substituted mutant β-lactam acylase-producing strain pUCNT-Tn5-MuKNK-L1/HB101 strain were inoculated in 10 ml of CM culture medium, and shaking culture was carried out at 37° C. overnight. Cells were recovered from 2 ml of the culture by centrifugation, and suspended in 30 mM KPB (pH 6.0). Then, 1 ml of a substrate (prepared by dissolving 0.5% HPGOMe-HCl and 0.5% 6-APA in 30 mM KPB and adjusted to pH 6.0) was mixed therewith, and the mixture was subjected to reaction at 30° C. After the lapse of 10, 20, 30, 60, 90 and 180 minutes from the start of the reaction, 1N HCl was added in 1/20 amount of the substrate solution to terminate the reaction. Then, the centrifuged supernatant was diluted to 25-fold with 30 mM KPB, and 10 μl thereof was analyzed by HPLC. The amoxycillin conversion efficiency comparison is shown in FIG. 6, and ester decomposition degree comparison of D-p-hydroxyphenylglycine methyl ester (HPGOMe) is shown in FIG. 7.

T1 sequence (P06875 290-846): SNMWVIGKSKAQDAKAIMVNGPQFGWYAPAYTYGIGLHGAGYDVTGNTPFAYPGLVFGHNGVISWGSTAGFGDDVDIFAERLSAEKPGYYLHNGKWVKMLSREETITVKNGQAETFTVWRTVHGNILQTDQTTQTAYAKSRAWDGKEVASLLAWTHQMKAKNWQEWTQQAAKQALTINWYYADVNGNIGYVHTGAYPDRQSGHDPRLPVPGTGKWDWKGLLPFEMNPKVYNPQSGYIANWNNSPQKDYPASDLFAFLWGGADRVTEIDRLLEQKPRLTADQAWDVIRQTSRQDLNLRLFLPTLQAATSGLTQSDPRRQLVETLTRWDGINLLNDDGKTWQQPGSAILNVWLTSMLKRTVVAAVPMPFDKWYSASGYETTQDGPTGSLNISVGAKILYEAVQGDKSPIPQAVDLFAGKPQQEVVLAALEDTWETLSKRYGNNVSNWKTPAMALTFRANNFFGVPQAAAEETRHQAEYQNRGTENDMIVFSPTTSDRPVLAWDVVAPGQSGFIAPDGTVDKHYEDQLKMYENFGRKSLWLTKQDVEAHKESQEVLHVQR
T1 sequence (P06875 27-235): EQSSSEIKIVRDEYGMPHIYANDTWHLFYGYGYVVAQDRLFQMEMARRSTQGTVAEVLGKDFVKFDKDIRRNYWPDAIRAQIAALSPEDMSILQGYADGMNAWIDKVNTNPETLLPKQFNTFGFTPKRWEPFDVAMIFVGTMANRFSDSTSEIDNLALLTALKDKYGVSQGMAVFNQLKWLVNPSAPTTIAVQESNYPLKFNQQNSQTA

O=C(O)Cc1ccccc1 [PAA, Phenylacetic Acid]
relative activity, amoxycillin synthesis amount with the substrate alone set at 100% ([1]; Substrate + 0.3% PAA): 0% | inhibition of amoxycillin synthesis (in words) [1]: inhibited | relative activity, amoxycillin synthesis amount with the substrate alone set at 100% ([2]; Substrate + 0.3% PAA): 107% | inhibition of amoxycillin synthesis (in words) [2]: not inhibited at all, or even in the case there is inhibition, it is slight

O=C(O)COc1ccccc1 [PXA, Phenoxyacetic Acid]
relative activity, amoxycillin synthesis amount with the substrate alone set at 100% ([1]; Substrate + 0.35% PXA): 0% | inhibition of amoxycillin synthesis (in words) [1]: inhibited | relative activity, amoxycillin synthesis amount with the substrate alone set at 100% ([2]; Substrate + 0.35% PXA): 76% | inhibition of amoxycillin synthesis (in words) [2]: not inhibited at all, or even in the case there is inhibition, it is slight

B1: Stenotrophomonas maltophilia KNK12A strain-derived β-lactam acylase: β-lactam acylase of Stenotrophomonas maltophilia KNK12A, amino acid sequence SEQ ID NO:2, about 70 kDa (protein, listed as Stenotrophomonas maltophilia)
chain: MHVRAVAVAIALSLSSTVLAADTPPMTPDISGKPFIAPDVGRDYDKRVVMVPMRDGTRLYTVIVVPKGAHNAPILLTRTPYDAAGRASRSDSPRMRDLLPQGDEVFVDGGYIRVFQDIRGKYGSEGDYVMTRPLRGPLNNTKVDHSTDAWDTIDWLVKHVPESNGKVGMLGSSYEGFTVVMALTDPHPALKVAAPQSPMVDGWMGDDWLNYGAFRQVNFNYFAMQTEKRGKGTPLPSLGYDDYSTFLRIGSAGDYARFTGVDQLTWWKKLVQHPAYDGFWQGQALDAVMAKTPLKVPTMWLQGLWDQEDMWGANHAYQAMEGRDTGNTHNYLVMGPWRHSQVNYTGNELGALKFEGDTALQFRRDVLKPFFDQYLVDGAPKADTPPVLIYNTGENHWDRLQGWPRSCDKGCTAASKPLYLRAGGKLAFQAPAAGEGDFEEYVSDPAKPVPFVPRPVRFGDRDMWTTWLVKDQRFVDGRPDVLTFITEPLAEPLRIGGAPVVHLQASTSGTDSDWVVKLIDVYPDQEASTPEMGGYELPVSLAIFRGRYRESFSDPKPLAANQVLPYRFDLPNANHVFQKGHRVMVQVQSSLFPLYDRNPQTYVPNIYLAKPGDYQKATQRVWHSAAQASYVDLPVY
amoxycillin synthesis conversion rate [3]: very high conversion rate as compared with Escherichia coli PenG amidase | amoxycillin decomposition speed [4]: slow | decomposition speed of HPGOMe [5]: faster than that of Escherichia coli PenG amidase

B2: mutant β-lactam acylase (protein, listed as Stenotrophomonas maltophilia)
chain: B1 chain with M204V
acylase activity ([6]; FIG. 6): enhanced | ester decomposition activity of the substrate HPGOMe ([6]; FIG. 7): reduced
